A value given as a limit tells only on which side of the number the result lay.

For the test, the target named is T1, RIPK2 enzyme (Homo sapiens, UniProt O43353).
T1 construct: purchased Carna 09-128
T1 sequence (O43353 1-299 limits assumed): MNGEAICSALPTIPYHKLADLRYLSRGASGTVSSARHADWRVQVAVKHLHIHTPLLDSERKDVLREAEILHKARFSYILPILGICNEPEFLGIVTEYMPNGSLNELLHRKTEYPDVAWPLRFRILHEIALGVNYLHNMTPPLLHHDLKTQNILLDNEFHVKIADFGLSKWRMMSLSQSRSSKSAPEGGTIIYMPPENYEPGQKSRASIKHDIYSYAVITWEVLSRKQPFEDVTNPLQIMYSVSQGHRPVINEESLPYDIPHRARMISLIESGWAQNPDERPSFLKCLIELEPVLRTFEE
In words: RIPK2 inhibition (ADP-Glo Kinase Assay). The test is classed as biochemical. The following applies: RIPK2 5 nM, ATP 150 μM, MBP substrate, read-out: RIPK2 IC50. In short, it runs like this:
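Human RIPK2 (5 nM) preincubated with compound 30 min at room temperature in 50 mM HEPES pH 7.5, 10 mM MgCl2, 2 mM DTT, 1 mM EGTA, 0.01% Brij-35, 0.05% BSA; native swine MBP as substrate. ADP formed quantified by ADP-Glo luminescence; percent inhibition relative to DMSO and no-enzyme controls.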
Regarding `Cc1cc(CC(=O)Nc2cnn(C(C)(C)C)c2)ccc1Oc1ccnc2ccc(S(=O)(=O)C3CNC3)cc12` [Compound 314, 2-(4-((6-(azetidin-3-ylsulfonyl)quinolin-4-yl)oxy)-3-methylphenyl)-N-(1-(tert-butyl)-1H-pyrazol-4-yl)acetamide], the half-inhibitory concentration (IC50) was less than 2.5 nM.
Turning to `Cc1c(Oc2ccnc3ccc(S(=O)(=O)C4CNC4)cc23)ccc(CC(=O)Nc2cnn(C(C)(C)C)c2)c1F` [Compound 315, 2-(4-((6-(azetidin-3-ylsulfonyl)quinolin-4-yl)oxy)-2-fluoro-3-methylphenyl)-N-(1-(tert-butyl)-1H-pyrazol-4-yl)acetamide], the IC50 was less than 2.5 nM.
Turning to `Cc1cc(CC(=O)Nc2cnn(C(C)(C)C)c2)c(F)cc1Oc1ccnc2ccc(S(=O)(=O)C3CNC3)cc12` [Compound 316, 2-(4-((6-(azetidin-3-ylsulfonyl)quinolin-4-yl)oxy)-2-fluoro-5-methylphenyl)-N-(1-(tert-butyl)-1H-pyrazol-4-yl)acetamide], the IC50 is less than 2.5 nM.
Take `Cc1cc(CC(=O)Nc2cnn(C(C)(C)C)c2)ccc1Oc1ccnc2ccc(N3CCC(F)(F)C3=O)cc12` [Compound 325, N-(1-(tert-butyl)-1H-pyrazol-4-yl)-2-(4-((6-(3,3-difluoro-2-oxopyrrolidin-1-yl)quinolin-4-yl)oxy)-3-methylphenyl) acetamide]: the IC50 was less than 2.5 nM.
Consider `Cc1cc(CC(=O)Nc2cc(C(C)(C)CO)n[nH]2)ccc1Oc1ccnc2ccc(S(C)(=O)=O)cc12` [Compound 328, N-(5-(1-hydroxy-2-methylpropan-2-yl)-1H-pyrazol-3-yl)-2-(3-methyl-4-((6-(methylsulfonyl)quinolin-4-yl)oxy)phenyl)acetamide], for which the half-inhibitory concentration (IC50) is less than 2.5 nM.
Under `Cc1c(Oc2ccnc3ccc(S(C)(=O)=O)cc23)ccc(CC(=O)Nc2cc(C(C)(C)CO)n[nH]2)c1F` [Compound 329, 2-(2-fluoro-3-methyl-4-((6-(methylsulfonyl)quinolin-4-yl)oxy)phenyl)-N-(5-(1-hydroxy-2-methylpropan-2-yl)-1H-pyrazol-3-yl)acetamide] stands less than 2.5 nM; under `COC(C)(C)c1cc(NC(=O)Cc2ccc(Oc3ccnc4ccc(S(C)(=O)=O)cc34)c(C)c2)[nH]n1` [Compound 330, N-(5-(2-methoxypropan-2-yl)-1H-pyrazol-3-yl)-2-(3-methyl-4-((6-(methylsulfonyl)quinolin-4-yl)oxy)phenyl)acetamide], less than 2.5 nM; under `COC(C)(C)c1cc(NC(=O)Cc2ccc(Oc3ccnc4ccc(S(C)(=O)=O)cc34)c(C)c2F)[nH]n1` [Compound 331, 2-(2-fluoro-3-methyl-4-((6-(methylsulfonyl)quinolin-4-yl)oxy)phenyl)-N-(5-(2-methoxypropan-2-yl)-1H-pyrazol-3-yl)acetamide], less than 2.5 nM.
Take `Cc1cc(CC(=O)Nc2cnn(C(C)(C)C)c2)ccc1Oc1ccnc2ccc(S(=O)(=O)CC3CNC3)cc12` [Compound 332, 2-(4-((6-((azetidin-3-ylmethyl)sulfonyl)quinolin-4-yl)oxy)-3-methylphenyl)-N-(1-(tert-butyl)-1H-pyrazol-4-yl)acetamide]: the IC50 is less than 2.5 nM.
For the compound `Cc1c(Oc2ccnc3ccc(C(=O)O)cc23)ccc(CC(=O)Nc2cnn(C(C)(C)C)c2)c1F` [Compound 333, 4-(4-(2-((1-(tert-butyl)-1H-pyrazol-4-yl)amino)-2-oxoethyl)-3-fluoro-2-methyl-phenoxy) quinoline-6-carboxylic acid], the concentration for half-maximal inhibition (IC50) is less than 2.5 nM.
As for `Cc1c(Oc2ccnc3ccc(C(N)=O)cc23)ccc(CC(=O)Nc2cnn(C(C)(C)C)c2)c1F` [Compound 334, 4-(4-(2-((1-(tert-butyl)-1H-pyrazol-4-yl)amino)-2-oxoethyl)-3-fluoro-2-methyl-phenoxy) quinoline-6-carboxamide], the half-maximal inhibitory concentration (IC50) is less than 2.5 nM.
Under `CNC(=O)c1ccc2nccc(Oc3ccc(CC(=O)Nc4cnn(C(C)(C)C)c4)c(F)c3C)c2c1` [Compound 335, 4-(4-(2-((1-(tert-butyl)-1H-pyrazol-4-yl)amino)-2-oxoethyl)-3-fluoro-2-methyl-phenoxy)-N-methyl-quinoline-6-carboxamide] stands less than 2.5 nM.
Take `Cc1c(Oc2ccnc3ccc(C(=O)N(C)C)cc23)ccc(CC(=O)Nc2cnn(C(C)(C)C)c2)c1F` [Compound 336, 4-(4-(2-((1-(tert-butyl)-1H-pyrazol-4-yl)amino)-2-oxoethyl)-3-fluoro-2-methyl-phenoxy)-N,N-dimethyl-quinoline-6-carboxamide]: the half-inhibitory concentration (IC50) is less than 2.5 nM.
Under `Cc1c(Oc2ccnc3ccc(C(=O)NCC(F)(F)F)cc23)ccc(CC(=O)Nc2cnn(C(C)(C)C)c2)c1F` [Compound 337, 4-(4-(2-((1-(tert-butyl)-1H-pyrazol-4-yl)amino)-2-oxoethyl)-3-fluoro-2-methyl-phenoxy)-N-(2,2,2-trifluoroethyl) quinoline-6-carboxamide] stands less than 2.5 nM; under `CCNC(=O)c1ccc2nccc(Oc3ccc(CC(=O)Nc4cnn(C(C)(C)C)c4)c(F)c3C)c2c1` [Compound 338, 4-(4-(2-((1-(tert-butyl)-1H-pyrazol-4-yl)amino)-2-oxoethyl)-3-fluoro-2-methyl-phenoxy)-N-ethylquinoline-6-carboxamide], less than 2.5 nM.
As for `Cc1c(Oc2ccnc3ccc(C(=O)NCCO)cc23)ccc(CC(=O)Nc2cnn(C(C)(C)C)c2)c1F` [Compound 339, 4-(4-(2-((1-(tert-butyl)-1H-pyrazol-4-yl)amino)-2-oxoethyl)-3-fluoro-2-methyl-phenoxy)-N-(2-hydroxyethyl) quinoline-6-carboxamide], the half-inhibitory concentration (IC50) is less than 2.5 nM.
The value for `Cc1c(Oc2ccnc3ccc(C(=O)N(C)CCO)cc23)ccc(CC(=O)Nc2cnn(C(C)(C)C)c2)c1F` [Compound 340, 4-(4-(2-((1-(tert-butyl)-1H-pyrazol-4-yl)amino)-2-oxoethyl)-3-fluoro-2-methyl-phenoxy)-N-(2-hydroxyethyl)-N-methyl-quinoline-6-carboxamide] was less than 2.5 nM; that for `Cc1c(Oc2ccnc3ccc(C(=O)N(CCO)CCO)cc23)ccc(CC(=O)Nc2cnn(C(C)(C)C)c2)c1F` [Compound 341, 4-(4-(2-((1-(tert-butyl)-1H-pyrazol-4-yl)amino)-2-oxoethyl)-3-fluoro-2-methyl-phenoxy)-N,N-bis(2-hydroxyethyl) quinoline-6-carboxamide] was less than 2.5 nM.
The value for `COCCNC(=O)c1ccc2nccc(Oc3ccc(CC(=O)Nc4cnn(C(C)(C)C)c4)c(F)c3C)c2c1` [Compound 342, 4-(4-(2-((1-(tert-butyl)-1H-pyrazol-4-yl)amino)-2-oxoethyl)-3-fluoro-2-methyl-phenoxy)-N-(2-methoxyethyl) quinoline-6-carboxamide] was less than 2.5 nM; that for `COCCN(C)C(=O)c1ccc2nccc(Oc3ccc(CC(=O)Nc4cnn(C(C)(C)C)c4)c(F)c3C)c2c1` [Compound 343, 4-(4-(2-((1-(tert-butyl)-1H-pyrazol-4-yl)amino)-2-oxoethyl)-3-fluoro-2-methyl-phenoxy)-N-(2-methoxyethyl)-N-methyl-quinoline-6-carboxamide] was less than 2.5 nM; that for `Cc1c(Oc2ccnc3ccc(C(=O)N4CCC4)cc23)ccc(CC(=O)Nc2cnn(C(C)(C)C)c2)c1F` [Compound 344, 2-(4-((6-(azetidine-1-carbonyl)quinolin-4-yl)oxy)-2-fluoro-3-methyl-phenyl)-N-(1-(tert-butyl)-1H-pyrazol-4-yl)acetamide] was less than 2.5 nM.
Consider `Cc1c(Oc2ccnc3ccc(C(=O)N4CC(F)C4)cc23)ccc(CC(=O)Nc2cnn(C(C)(C)C)c2)c1F` [Compound 345, N-(1-(tert-butyl)-1H-pyrazol-4-yl)-2-(2-fluoro-4-((6-(3-fluoro-azetidine-1-carbonyl)quinolin-4-yl)oxy)-3-methylphenyl) acetamide], for which the concentration for half-maximal inhibition (IC50) is less than 2.5 nM.
The value for `Cc1c(Oc2ccnc3ccc(C(=O)N4CC(C#N)C4)cc23)ccc(CC(=O)Nc2cnn(C(C)(C)C)c2)c1F` [Compound 346, N-(1-(tert-butyl)-1H-pyrazol-4-yl)-2-(4-((6-(3-cyano-azetidine-1-carbonyl)quinolin-4-yl)oxy)-2-fluoro-3-methylphenyl) acetamide] was less than 2.5 nM.
For `Cc1c(Oc2ccnc3ccc(C(=O)N4CC5(COC5)C4)cc23)ccc(CC(=O)Nc2cnn(C(C)(C)C)c2)c1F` [Compound 347, 2-(4-((6-(2-oxa-6-azaspiro[3.3]heptane-6-carbonyl)quinolin-4-yl)oxy)-2-fluoro-3-methyl-phenyl)-N-(1-(tert-butyl)-1H-pyrazol-4-yl)acetamide], the IC50 was less than 2.5 nM.
The value for `Cc1c(Oc2ccnc3ccc(C(=O)N4CC(O)C4)cc23)ccc(CC(=O)Nc2cnn(C(C)(C)C)c2)c1F` [Compound 348, N-(1-(tert-butyl)-1H-pyrazol-4-yl)-2-(2-fluoro-4-((6-(3-hydroxy-azetidine-1-carbonyl)quinolin-4-yl)oxy)-3-methyl-phenyl) acetamide] was less than 2.5 nM; that for `Cc1c(Oc2ccnc3ccc(C(=O)N4CC(N)C4)cc23)ccc(CC(=O)Nc2cnn(C(C)(C)C)c2)c1F` [Compound 349, 2-(4-((6-(3-amino-azetidine-1-carbonyl)quinolin-4-yl)oxy)-2-fluoro-3-methyl-phenyl)-N-(1-(tert-butyl)-1H-pyrazol-4-yl)acetamide] was less than 2.5 nM; that for `Cc1c(Oc2ccnc3ccc(C(=O)N4CCCC4)cc23)ccc(CC(=O)Nc2cnn(C(C)(C)C)c2)c1F` [Compound 350, N-(1-(tert-butyl)-1H-pyrazol-4-yl)-2-(2-fluoro-3-methyl-4-((6-(pyrrolidine-1-carbonyl)quinolin-4-yl)oxy)phenyl) acetamide] was less than 2.5 nM.
`Cc1c(Oc2ccnc3ccc(C(=O)N4CCOCC4)cc23)ccc(CC(=O)Nc2cnn(C(C)(C)C)c2)c1F` [Compound 355, N-(1-(tert-butyl)-1H-pyrazol-4-yl)-2-(2-fluoro-3-methyl-4-((6-(morpholine-4-carbonyl)quinolin-4-yl)oxy)phenyl) acetamide]: the IC50 is less than 2.5 nM.

The values are drawn from patent US12624018B1, “Inhibitors of RIPK2 and medical uses thereof” (Odyssey Therapeutics, Inc., priority 2022, dated 2026).
